“And” between values parts separate entries of the source, which are not always exact repeats. Equal values may be shown once.

In test [1] the test system is Store Operated Calcium Entry (SOCE) in Jurkat cells. Nature of the test: Fura-2 single-cell Ca2+ measurement of tBHQ-induced SOCE in Jurkat cells. It counts as cell-based, human. To be noted: for inhibition at 10 µM: Homo sapiens, SOCE modulation based on tBHQ-induced calcium influx. As for the experimental part:
Immortalized line of human T lymphocyte Jurkat cells were achieved from ATCC (ATCC® TIB-152™, Rockville, Md., USA) and were cultured in Roswell Park Memorial Institute Medium (RPMI 1640; Sigma-Aldrich, Italy), supplemented with 10% heat-inactivated FBS (Gibco, Italy), 1-glutamine 50 mg/mL (Sigma-Aldrich, Italy), penicillin 10 U/mL and streptomycin […] (Sigma-Aldrich, Italy) at 37° C., under a 5% CO2 humidified atmosphere. For experiments, the cells were plated onto glass coverslips at concentrations of 6×10^4 per mL (24 mm diameter coverslips in 6 well plates).
Compounds were also tested on Jurkat cells in single-cell analysis using Fura-2 AM on cover-slips. Jurkat cells were loaded with 5 μM Fura-2 AM in presence of 0.02% of Pluronic-127 (both from Life Technologies, Italy) and 1 μM sulfinpyrazone in Krebs-Ringer buffer (KRB, 135 mM NaCl, 5 mM KCl, 0.4 mM KH2PO4, 1 mM MgSO4, 5.5 mM glucose, 20 mM HEPES, pH 7.4) containing 2 mM CaCl2 (30 min, room temperature). Afterwards, cells were washed and incubated with KRB for other 30 min to allow de-esterification of Fura-2AM. To measure store operated calcium entry, changes in cytosolic Ca^2+ were monitored upon depletion of the intracellular Ca^2+ stores. Experiments were carried out prior to and during exposure of the cells to the Ca^2+-free solution. In the absence of Ca^2+, the intracellular Ca^2+ stores were depleted by inhibition of the vesicular Ca^2+ pump by 2,5-t-butylhydroquinone (tBHQ, 50 μM; Sigma-Aldrich, Italy). Re-addition of 2 mM Ca^2+ allowed assessing the SOCE. During the experiments the cover-slips were mounted into acquisition chamber and placed on the stage of a Leica DMI6000 epi-fluorescent microscope equipped with S Fluor ×40/1.3 objective. Fura-2 was excited by alternate 340 and 380 nm using a Polychrome IV mono-chromator (Till Photon-ics, Germany) and the probe emission light was filtered through 520/20 band-pass filter and collected by a cooled CCD camera (Hamamatsu, Japan). The fluorescence signals were acquired and processed using MetaFluor software (Molecular Device, Sun-Nyvale, C A, USA). To quantify the differences in the amplitudes of Ca^2+ transients the ratio values were normalized using the formula ΔF/F0 (referred to as normalized Fura-2 ratio, “Norm. Fura ratio”). The percentage of SOCE modulation for each of 15 compounds was determined based on value of tBHQ-induced calcium influx into Jurkat cells. Data were analysed using Microsoft Excel and GraphPad Prism.

Test [2] deals with Store Operated Calcium Entry (SOCE) in BV-2 cells. Nature of the test: Fluo-4 fluorimetric assay of tBHQ-induced store operated calcium entry in BV-2 cells. The class given is cell-based, mouse. To be noted: for inhibition at 10 µM: Mus musculus, SOCE inhibition based on tBHQ-induced calcium influx; for % Activation (10 μM): potentiation of calcium entry. The method, then:
(A) BV-2 cells were plated in poly-d-lysine coated 24-well plate and incubated overnight. After 24 hours, cells were loaded with 2 μM Fluo-4 and placed in an extracellular solution containing 0 mM Ca^2+. Stores were depleted with 50 μM tBHQ and calcium influx was stimulated by the addition of 2 mM Ca^2+ alone (Ctrl), or in conbination with: compound with no activity (NM-3A), and compounds that positively (4-(1-(4-(3,5-bis(trifluoromethyl)-1H-pyrazol-1-yl)phenyl)-1H-1,2,3-triazol-4-yl)benzoic acid) and negatively (3-(1-(4-(4-(ethoxycarbonyl)-5-(trifluoromethyl)-1H-pyrazol-1-yl)phenyl)-1H-1,2,3-triazol-4-yl)benzoic acid) regulate SOCE. Calcium responses are expressed as changes in fluorescence intensity before and after the addition of selected modulators. (B) BV-2 cells were assayed for a calcium response to different concentrations of 3-(1-(4-(4-(ethoxycarbonyl)-5-(trifluoromethyl)-1H-pyrazol-1-yl)phenyl)-1H-1,2,3-triazol-4-yl)benzoic acid and 4-(1-(4-(3,5-bis(trifluoromethyl)-1H-pyrazol-1-yl)phenyl)-1H-1,2,3-triazol-4-yl)benzoic acid (0.1-0.3-1-3-10-30-100 μM) using Fluo-4 fluorimetric assay. Concentration-response curves represent the AUC % of both compounds as compared to positive control.
Immortalized primary mouse microglial BV-2 cells were obtained from ATCC (ATCC® CRL-2540™, Rockville, Md., USA) and were cultured in Dulbecco's Modified Eagle's Medium (DMEM; Sigma-Aldrich, Italy), supplemented with 10% heat-inactivated FBS (Gibco, Italy), 1-glutamine 50 mg/mL (Sigma-Aldrich, Italy), penicillin 10 U/mL and streptomycin […] (Sigma-Aldrich, Italy) at 37° C., under a 5% CO2 humidified atmosphere. For experiments, the cells were plated 2×10^4 per ml in 24 well plates) or onto glass coverslips at concentrations of 4×10^4 per mL (24 mm diame-ter coverslips in 6 well plates).
BV-2 cells were loaded with 5 μM Fluo-4 AM in presence of 0.02% of Pluronic-127 (both from Life Technologies, Italy) and 10 μM sulfinpyrazone in Krebs-Ringer buffer (KRB, 135 mM NaCl, 5 mM KCl, 0.4 mM KH2PO4, 1 mM MgSO4, 5.5 mM glucose, 20 mM HEPES, pH 7.4) containing 2 mM CaCl2 (30 min, room temperature). Subsequently, cells were washed and incubated with KRB for other 30 min to allow de-esterification of Fluo-4 AM. Experiments were carried out prior to and during exposure of the cells to the Ca^2+-free solution. In the absence of Ca^2+, the intracellular Ca^2+ stores were depleted by 2,5-t-butylhydroquinone (tBHQ, 50 μM; Sigma-Aldrich, Italy), a SERCA poison, and then calcium 2 mM was re-added to the extracellular solution. Fluorescence is then monitored sequentially for a second in each well for 600 seconds with excitation at 494 nm and an emission wavelength at 516 nm on the V3 Victor plate-reader (Perkin Elmer), generating time-curves for each well. Data were analysed using Microsoft Excel and GraphPad Prism.
The percentage of SOCE inhibition for each compound was determined based on value of tBHQ-induced calcium influx into BV-2 cells (Table 2).

The next test addresses ICRAC (Homo sapiens, UniProt Q96D31). To be noted: read-out: IC50 (inhibition of ICRAC); cited from earlier work.

Sequence of ICRAC (Q96D31 whole entry): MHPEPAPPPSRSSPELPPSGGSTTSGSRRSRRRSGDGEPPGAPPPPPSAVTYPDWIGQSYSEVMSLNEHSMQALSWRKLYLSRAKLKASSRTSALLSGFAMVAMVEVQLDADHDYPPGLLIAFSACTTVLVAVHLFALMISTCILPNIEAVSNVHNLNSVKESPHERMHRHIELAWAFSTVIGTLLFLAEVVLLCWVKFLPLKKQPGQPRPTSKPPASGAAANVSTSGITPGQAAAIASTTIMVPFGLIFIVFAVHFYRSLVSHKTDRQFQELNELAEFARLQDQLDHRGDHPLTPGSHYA

As to `O=C(O)c1cnn(-c2ccc(-c3cn(-c4ccc(Cl)cc4)nn3)cc2)c1C(F)(F)F` [1-(4-(1-(4-chlorophenyl)-1H-1,2,3-triazol-4-yl)phenyl)-5-(trifluoromethyl)-1H-pyrazole-4-carboxylic acid], in test [1], the “% Activation (10 μM)” value was 100.13%.

Regarding `O=C(O)c1cccc(-c2cn(-c3ccc(-n4nc(C(F)(F)F)cc4C(F)(F)F)cc3)nn2)c1` [3-(1-(4-(3,5-bis(trifluoromethyl)-1H-pyrazol-1-yl)phenyl)-1H-1,2,3-triazol-4-yl)benzoic acid], the inhibition at 10 µM in test [2] is 38.7%; in test [1], 38.3%.

As to `O=C(O)c1cccc(-c2cn(-c3ccc(-n4ncc(C(=O)OCCN5CCOCC5)c4C(F)(F)F)cc3)nn2)c1` [3-(1-(4-(4-((2-morpholinoethoxy)carbonyl)-5-(trifluoromethyl)-1H-pyrazol-1-yl)phenyl)-1H-1,2,3-triazol-4-yl)benzoic acid], the results for the inhibition at 10 µM in test [2] and in test [1] were 95.7% and 25.1%, respectively.

Consider `O=C(O)c1cccc(-c2cn(-c3ccc(-n4ncc(C(=O)OCc5ccccc5)c4C(F)(F)F)cc3)nn2)c1` [3-(1-(4-(4-((benzyloxy)carbonyl)-5-(trifluoromethyl)-1H-pyrazol-1-yl)phenyl)-1H-1,2,3-triazol-4-yl)benzoic acid], for which the values for the inhibition at 10 µM in test [2] and in test [1] were 87% and 33.5%, respectively.

With `O=C(O)c1cccc(-c2cn(-c3ccc(-n4ncc(C(=O)OCc5ccncc5)c4C(F)(F)F)cc3)nn2)c1` [3-(1-(4-(4-((pyridin-4-ylmethoxy)carbonyl)-5-(trifluoromethyl)-1H-pyrazol-1-yl)phenyl)-1H-1,2,3-triazol-4-yl)benzoic acid], the results for the inhibition at 10 µM in test [2] and in test [1] were 54.6% and 57%, respectively.

Turning to `CC(C)OC(=O)c1cnn(-c2ccc(-n3cc(-c4cccc(C(=O)O)c4)nn3)cc2)c1C(F)(F)F` [3-(1-(4-(4-(isopropoxycarbonyl)-5-(trifluoromethyl)-1H-pyrazol-1-yl)phenyl)-1H-1,2,3-triazol-4-yl)benzoic acid], the values for the inhibition at 10 µM in test [2] and in test [1] were 74.6% and 93.9%, respectively.

Take `COC(=O)c1cnn(-c2ccc(-n3cc(-c4cccc(C(=O)O)c4)nn3)cc2)c1C(F)(F)F` [3-(1-(4-(4-(methoxycarbonyl)-5-(trifluoromethyl)-1H-pyrazol-1-yl)phenyl)-1H-1,2,3-triazol-4-yl)benzoic acid]: the values for the inhibition at 10 µM in test [2] and in test [1] were 12.4% and 21.8%, respectively.

Regarding `O=C(O)c1cccc(-n2cc(-c3ccc(-n4nc(C(F)(F)F)cc4C(F)(F)F)cc3)nn2)c1` [3-(4-(4-(3,5-bis(trifluoromethyl)-1H-pyrazol-1-yl)phenyl)-1H-1,2,3-triazol-1-yl)benzoic acid], the inhibition at 10 µM in test [2] came out at 30.5%; in test [1], 39.7%.

As to `CCOC(=O)c1cnn(-c2ccc(-c3cn(-c4cccc(C(=O)O)c4)nn3)cc2)c1C(F)(F)F` [3-(4-(4-(4-(ethoxycarbonyl)-5-(trifluoromethyl)-1H-pyrazol-1-yl)phenyl)-1H-1,2,3-triazol-1-yl)benzoic acid], the figures for the inhibition at 10 µM in test [2] and in test [1] were 43.3% and 63.6%, respectively.

Take `O=C(O)c1ccc(-c2cn(-c3ccc(-n4nc(C(F)(F)F)cc4C(F)(F)F)cc3)nn2)cc1` [4-(1-(4-(3,5-bis(trifluoromethyl)-1H-pyrazol-1-yl)phenyl)-1H-1,2,3-triazol-4-yl)benzoic acid]: the “% Activation (10 μM)” value in test [2] is 125.15%; in test [1], 136.42%. For the same compound, the “Regulation of SOCE (calcium response, representative traces FIG. 2A)” value in test [2] (Fluo-4, 50 μM tBHQ, 2 mM Ca2+ re-addition) is “positively”.

Regarding `CCOC(=O)c1cnn(-c2ccc(-n3cc(-c4ccc(C(=O)O)cc4)nn3)cc2)c1C(F)(F)F` [4-(1-(4-(4-(ethoxycarbonyl)-5-(trifluoromethyl)-1H-pyrazol-1-yl)phenyl)-1H-1,2,3-triazol-4-yl)benzoic acid], the values for the inhibition at 10 µM in test [2] and in test [1] were 40.1% and 32.3%, respectively.

For the compound `CCOC(=O)c1cnn(-c2ccc(-c3cn(CCCC(=O)O)nn3)cc2)c1C(F)(F)F` [4-(4-(4-(4-(ethoxycarbonyl)-5-(trifluoromethyl)-1H-pyrazol-1-yl)phenyl)-1H-1,2,3-triazol-1-yl)butanoic acid], the inhibition at 10 µM in test [2] is 30.1%; in test [1], 19.1%.

`COc1ccc(OC)c(-c2ccc(NC(=O)c3ccncc3F)cc2)c1` [Synta66]: the IC50 on ICRAC was 300 nM.

Take `CCOC(=O)c1cnn(-c2ccc(-c3cn(-c4ccncc4F)nn3)cc2)c1C(F)(F)F` [ethyl 1-(4-(1-(3-fluoropyridin-4-yl)-1H-1,2,3-triazol-4-yl)phenyl)-5-(trifluoromethyl)-1H-pyrazole-4-carboxylate]: the inhibition at 10 µM in test [2] worked out at 37.7%; in test [1] it was 32.9%.

On to `CCOC(=O)c1cnn(-c2ccc(-c3cn(-c4ccc(Cl)cc4)nn3)cc2)c1C(F)(F)F` [ethyl 1-(4-(1-(4-chlorophenyl)-1H-1,2,3-triazol-4-yl)phenyl)-5-(trifluoromethyl)-1H-pyrazole-4-carboxylate], for which the “% Activation (10 μM)” value in test [2] was 47.07%; in test [1], 122.94% and 126.78% and 97.32%.

Regarding `CCOC(=O)c1cnn(-c2ccc(-n3cc(-c4ccc(O)c(OC)c4)nn3)cc2)c1C(F)(F)F` [ethyl 1-(4-(4-(4-hydroxy-3-methoxyphenyl)-1H-1,2,3-triazol-1-yl)phenyl)-5-(trifluoromethyl)-1H-pyrazole-4-carboxylate], the results for the inhibition at 10 µM in test [2] and in test [1] were 35% and 78.4%, respectively.

These data come from patent US10519138B2, “Modulators of SOCE, compositions, and uses thereof” (Università degli Studi del Piemonte Orientale “Amedeo …, priority 2016, dated 2019).
